Test results: ChEMBL document CHEMBL1145887, “Large dimeric ligands with favorable pharmacokinetic properties and peroxisome proliferator-activated receptor agonist activity in vitro and in vivo” (J Med Chem, 2003)

Key:
[1] = Volume of distribution during steady state in rat; conditions: in vivo
[2] = tested on: Mus musculus; assay: In vivo insulin effect in db/db mice after oral treatment; format: functional
[3] = biological target: T1, Peroxisome proliferator-activated receptor alpha (Rattus norvegicus) (UniProt P37230); assay: (§1) In vitro transactivation of rat Peroxisome proliferator activated receptor alpha; parameters: concentration or dose not given beside the values
T1 sequence (whole entry): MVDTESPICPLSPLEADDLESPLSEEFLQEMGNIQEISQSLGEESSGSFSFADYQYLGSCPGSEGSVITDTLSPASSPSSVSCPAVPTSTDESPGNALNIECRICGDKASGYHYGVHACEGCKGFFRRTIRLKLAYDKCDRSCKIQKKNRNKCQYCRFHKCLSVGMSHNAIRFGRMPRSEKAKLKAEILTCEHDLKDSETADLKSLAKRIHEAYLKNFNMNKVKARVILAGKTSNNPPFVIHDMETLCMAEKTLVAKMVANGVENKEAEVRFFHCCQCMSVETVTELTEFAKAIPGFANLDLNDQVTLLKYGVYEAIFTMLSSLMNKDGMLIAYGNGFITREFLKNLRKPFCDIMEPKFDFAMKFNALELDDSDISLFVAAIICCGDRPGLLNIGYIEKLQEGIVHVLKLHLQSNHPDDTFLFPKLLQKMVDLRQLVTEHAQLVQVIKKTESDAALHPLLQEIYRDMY

[4] = Oral half-life in rat after peroral administration; format: ADME, organism-based; conditions: in vivo
[5] = organism: Mus musculus; assay: Area under blood glucose time curve after oral glucose test in mice; format: functional
[6] = biological target: T2, Peroxisome proliferator-activated receptor alpha (Rattus norvegicus, UniProt P37230); assay: as §1
T2 sequence (P37230 whole entry): T1 sequence (whole entry)

[7] = Clearance in rat; format: ADME, organism-based; conditions: in vivo
[8] = biological target: T3, Peroxisome proliferator-activated receptor alpha (Homo sapiens, UniProt Q07869); assay: (§2) In vitro transactivation of human Peroxisome proliferator activated receptor alpha (hPPARalpha)
T3 sequence (Q07869 whole entry): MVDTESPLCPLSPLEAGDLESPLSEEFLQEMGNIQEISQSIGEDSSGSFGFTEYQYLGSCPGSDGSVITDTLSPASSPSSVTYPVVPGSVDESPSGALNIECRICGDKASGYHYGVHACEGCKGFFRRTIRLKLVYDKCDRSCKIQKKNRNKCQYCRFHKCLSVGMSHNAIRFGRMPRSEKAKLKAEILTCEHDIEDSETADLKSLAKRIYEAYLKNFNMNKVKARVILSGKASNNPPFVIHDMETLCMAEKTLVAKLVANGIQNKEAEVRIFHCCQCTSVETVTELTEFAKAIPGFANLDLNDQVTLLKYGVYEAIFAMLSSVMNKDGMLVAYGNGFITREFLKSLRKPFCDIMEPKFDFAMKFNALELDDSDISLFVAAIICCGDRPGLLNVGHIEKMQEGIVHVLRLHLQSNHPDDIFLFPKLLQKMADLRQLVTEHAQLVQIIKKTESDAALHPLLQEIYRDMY

[9] = tested on: Mus musculus; assay: In vivo nonfasting blood glucose in db/db mice after oral treatment; format: functional
[10] = Partition coefficient (logP); format: physicochemical; conditions: octanol/water
[11] = tested on: Mus musculus; assay: In vivo nonfasting triglyceride in db/db mice after oral treatment; format: functional
[12] = Area under the plasma concentration-time curve in rat after peroral administration; format: ADME, organism-based; conditions: po
[13] = Maximum plasma concentration in rat after peroral administration; format: ADME, organism-based; parameters: route oral; conditions: po
[14] = biological target: T4, Peroxisome proliferator-activated receptor delta (Homo sapiens, UniProt Q03181); assay: In vitro transactivation of human Peroxisome proliferator activated receptor delta (hPPARdelta)
T4 sequence (Q03181 whole entry): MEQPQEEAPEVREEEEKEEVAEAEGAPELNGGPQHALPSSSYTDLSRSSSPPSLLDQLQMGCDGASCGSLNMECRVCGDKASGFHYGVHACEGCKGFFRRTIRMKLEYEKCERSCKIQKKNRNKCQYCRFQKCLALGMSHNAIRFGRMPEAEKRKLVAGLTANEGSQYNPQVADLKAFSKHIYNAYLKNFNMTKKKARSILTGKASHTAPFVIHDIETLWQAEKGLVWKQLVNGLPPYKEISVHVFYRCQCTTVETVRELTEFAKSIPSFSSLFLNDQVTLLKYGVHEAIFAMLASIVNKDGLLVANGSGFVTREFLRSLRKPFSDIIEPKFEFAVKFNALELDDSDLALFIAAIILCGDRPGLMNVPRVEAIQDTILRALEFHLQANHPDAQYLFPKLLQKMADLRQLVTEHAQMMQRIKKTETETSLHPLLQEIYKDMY

[15] = biological target: T5, Peroxisome proliferator-activated receptor gamma (Homo sapiens, UniProt P37231)
T5 sequence (P37231 whole entry): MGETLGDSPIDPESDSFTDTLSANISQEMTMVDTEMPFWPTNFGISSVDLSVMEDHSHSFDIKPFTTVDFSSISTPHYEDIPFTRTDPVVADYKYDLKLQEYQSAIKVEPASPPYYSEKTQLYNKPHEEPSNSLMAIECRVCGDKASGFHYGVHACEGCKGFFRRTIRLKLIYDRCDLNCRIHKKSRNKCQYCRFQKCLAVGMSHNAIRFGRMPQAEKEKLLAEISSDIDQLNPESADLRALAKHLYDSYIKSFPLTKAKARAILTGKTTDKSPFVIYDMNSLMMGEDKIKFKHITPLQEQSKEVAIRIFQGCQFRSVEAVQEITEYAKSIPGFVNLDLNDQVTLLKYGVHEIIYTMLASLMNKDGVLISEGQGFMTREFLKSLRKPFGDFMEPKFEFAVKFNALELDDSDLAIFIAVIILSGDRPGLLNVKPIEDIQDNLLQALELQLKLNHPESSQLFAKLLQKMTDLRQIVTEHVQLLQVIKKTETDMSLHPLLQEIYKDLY
Description: In vitro transactivation of human Peroxisome proliferator activated receptor gamma

[16] = Oral bioavailability in rat; format: ADME, organism-based; conditions: in vivo
[17] = biological target: T6, Peroxisome proliferator-activated receptor alpha (Homo sapiens) (UniProt Q07869); assay: as §2; parameters: concentration or dose not given beside the values
T6 sequence (whole entry): T3 sequence (Q07869 whole entry)

Structure (SMILES)	Vd [1] [L/kg]	ED50 [2] [mg/kg]	Max reduction [2] [%]	Fold activation [3] [%]	half-life [4] [h]	Max reduction [5] [%]	ED50 ([5]; Mus musculus, Blood, po) [mg/kg]	EC50 [6] [nM]	clearance [7] [mL/min/kg]	EC50 [8] [nM]	ED50 [9] [mg/kg]	Max reduction [9] [%]	logP [10]	ED50 [11] [mg/kg]	Max reduction [11] [%]	AUC [12] [ng·h/mL]	EC50 [14] [nM]	EC50 [15] [nM]	bioavailability [16] [%]	Fold activation [17] [%]	also measured
CCO[C@@H](Cc1ccc(OC/C=C(\C)c2ccc(-c3ccccc3)cc2)cc1)C(=O)O	0.16	0.2	95	166	3.55	50	0.3	11100	0.49	490	0.2	53	4.5	0.3	65	116000	9550	2030	100	158	Cmax [13]: 9250 ng/mL
CC(C)(Oc1ccc(C(=O)c2ccc(Cl)cc2)cc1)C(=O)O [FENOFIBRIC ACID]	–	191	32	331	–	0	> 300	131000	–	32100	> 300	10	4.27	> 300	20	–	–	–	–	265	–
CCO[C@@H](Cc1ccc(OC/C=C/C#Cc2ccc(C#C/C=C/COc3ccc(C[C@H](OCC)C(=O)O)cc3)cc2)cc1)C(=O)O	0.04	0.4	90	210	> 6	52	0.9	6300	0.1	710	0.4	55	4.81	0.2	56	111000	2170	110	100	173	Cmax [13]: 27800 ng/mL
CCCCC[C@H](O)/C=C/[C@@H]1[C@H]2C/C(=C\CCCC(=O)O)C[C@H]2C[C@H]1O [CARBACYCLIN]	–	–	–	15	–	–	–	–	–	960	–	–	–	–	–	–	1880	7910	–	79	–
CCc1ccc(CCOc2ccc(CC3SC(=O)NC3=O)cc2)nc1 (configuration not stated) [PIOGLITAZONE]	–	15	54	–	–	39	12	–	–	–	2.6	53	–	27	21	–	–	–	–	–	–
CCO[C@@H](Cc1ccc(OC/C=C/C#Cc2cccc(C#C/C=C/COc3ccc(C[C@H](OCC)C(=O)O)cc3)c2)cc1)C(=O)O	0.16	0.6	86	109	6.7	60	0.5	4600	0.23	300	0.9	54	4.81	0.1	46	84900	10500	1650	63	193	Cmax [13]: 7210 ng/mL
CCO[C@@H](Cc1ccc(OC/C=C/C#Cc2ccccc2)cc1)C(=O)O	0.14	1	92	112	2.03	45	1.2	700	0.54	67	0.4	54	3.87	0.4	57	62200	6900	1130	89	123	Cmax [13]: 4570 ng/mL
Cc1cccc(Nc2cc(Cl)nc(SCC(=O)O)n2)c1C [PIRINIXIC ACID]	–	15	45	–	–	13	–	2100	–	–	2.2	36	–	3	32	–	–	–	–	–	ED50 [5]: 4.7 mg/kg
CN(CCOc1ccc(CC2SC(=O)NC2=O)cc1)c1ccccn1 (configuration not stated) [ROSIGLITAZONE]	–	0.1	43	–	3.03	16	0.8	–	2.1	–	0.9	35	1.91	0.1	58	14600	–	–	83	–	–
